Results taken from ChEMBL document CHEMBL1201862, “PubChem BioAssay data set” (2004).
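Grown in 96-well plates, cells were treated for 48 hours with each compound at five concentrations. Insufficient inhibition: endpoint recorded as highest concentration tested. At the GI50, growth is halved.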 Active and inactive are the calls of the source. No stated cut-off is given here; in the data, active = GI50 up to about 1.1 µM and inactive = higher.

Tests used:
Test in all cases: growth of human tumour cells (NCI), 48 h
SN12C = tested on: SN12C
PC-3 = tested on: PC-3
IGROV-1 = tested on: IGROV-1
ACHN = tested on: ACHN
OVCAR-3 = tested on: OVCAR-3
Hs-578T = tested on: Hs-578T
NCI-H522 = tested on: NCI-H522
SW-620 = tested on: SW-620
SK-MEL-5 = tested on: SK-MEL-5
RXF 393 = tested on: RXF 393
OVCAR-8 = tested on: OVCAR-8
UO-31 = tested on: UO-31
HT-29 = tested on: HT-29
SK-MEL-28 = tested on: SK-MEL-28
SR = tested on: SR
NCI-H460 = tested on: NCI-H460
786-0 = tested on: 786-0
SF-268 = tested on: SF-268
MDA-N = tested on: MDA-N

SMILES	GI50 (SN12C)	GI50 (PC-3)	GI50 (IGROV-1)	GI50 (ACHN)	GI50 (OVCAR-3)	GI50 (Hs-578T)	GI50 (NCI-H522)	GI50 (SW-620)	GI50 (SK-MEL-5)	GI50 (RXF 393)	GI50 (OVCAR-8)	GI50 (UO-31)	GI50 (HT-29)	GI50 (SK-MEL-28)	GI50 (SR)	GI50 (NCI-H460)	GI50 (786-0)	GI50 (SF-268)	GI50 (MDA-N)
COc1ccc(NC(=S)NN=C(C)c2cccc(C(C)=NNC(=S)Nc3ccc(OC)cc3)n2)cc1	> 100 µM (inactive)	27.2 µM (inactive)	0.857 µM (active)	4.74 µM (inactive)	13.9 µM (inactive)	> 100 µM (inactive)	33.8 µM (inactive)	64.7 µM (inactive)	0.995 µM (active)	> 100 µM (inactive)	9.51 µM (inactive)	6.65 µM (inactive)	28.2 µM (inactive)	> 100 µM (inactive)	3.13 µM (inactive)	12.4 µM (inactive)	14.7 µM (inactive)	> 100 µM (inactive)	
CN(c1ccccc1)S(=O)(=O)c1ccc([N+](=O)[O-])cc1	> 100 µM (inactive)	89.5 µM (inactive)		> 100 µM (inactive)	> 100 µM (inactive)		> 100 µM (inactive)	> 100 µM (inactive)		> 100 µM (inactive)	> 100 µM (inactive)	> 100 µM (inactive)	69.5 µM (inactive)	> 100 µM (inactive)	> 100 µM (inactive)	> 100 µM (inactive)	> 100 µM (inactive)	> 100 µM (inactive)	> 100 µM (inactive)
C=C(CCC/C(C)=C/C=C/[C@H](C)CCCc1ccoc1)C[C@@H]1OC(=O)[C@H](C)[C@@H]1O	8.79 µM (inactive)	8.65 µM (inactive)	11.2 µM (inactive)	9.18 µM (inactive)	7.64 µM (inactive)		9.02 µM (inactive)	12.8 µM (inactive)	8.04 µM (inactive)	6.67 µM (inactive)	11.9 µM (inactive)	7.69 µM (inactive)	15.1 µM (inactive)	7.41 µM (inactive)	11.8 µM (inactive)	12.5 µM (inactive)	11.2 µM (inactive)	9.2 µM (inactive)	9.98 µM (inactive)
COC(=O)[C@]12CSC[C@H]1C[C@H](c1ccccc1OC)N2	> 100 µM (inactive)	> 100 µM (inactive)	85.9 µM (inactive)	> 100 µM (inactive)	> 100 µM (inactive)		> 100 µM (inactive)	> 100 µM (inactive)	> 100 µM (inactive)	> 100 µM (inactive)	> 100 µM (inactive)	> 100 µM (inactive)		> 100 µM (inactive)	> 100 µM (inactive)	> 100 µM (inactive)	> 100 µM (inactive)	> 100 µM (inactive)	> 100 µM (inactive)
Cc1ccc2c(=O)cc(Cc3cccs3)[nH]c2n1	> 100 µM (inactive)	> 100 µM (inactive)	> 100 µM (inactive)		> 100 µM (inactive)	> 100 µM (inactive)	> 100 µM (inactive)	> 100 µM (inactive)	> 100 µM (inactive)	> 100 µM (inactive)	> 100 µM (inactive)	> 100 µM (inactive)	> 100 µM (inactive)	> 100 µM (inactive)			> 100 µM (inactive)	> 100 µM (inactive)	
OC(CN(CCCl)CCCl)C(O)C(O)C(O)CN(CCCl)CCCl (configuration not stated)	23.2 µM (inactive)	> 100 µM (inactive)	> 100 µM (inactive)	2.7 µM (inactive)	> 100 µM (inactive)	> 100 µM (inactive)	47.3 µM (inactive)	> 100 µM (inactive)	> 100 µM (inactive)	> 100 µM (inactive)	> 100 µM (inactive)	22.1 µM (inactive)	> 100 µM (inactive)	> 100 µM (inactive)	0.624 µM (active)	9.89 µM (inactive)	91 µM (inactive)	41.6 µM (inactive)	
